Several values for one entry are separate records, joined by “and”; a condition that tells them apart may be missing. Identical values can stand only once. Activity calls are given as the source filed them.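 The calls were made as follows: active = IC50 no higher than ten times the top tested dose; inconclusive = flat fit with 30 to 70% inhibition, or poor fit; inactive = IC50 above ten times the top dose.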
Test system: Clostridium difficile clinical isolate growth, OD600, 24 h
Experiment: growth modulation of Clostridium difficile isolate – OD600, 9-point, retest, dose response (AID 1224920);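 also: inhibitors lower culture turbidity so OD600 falls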

| SMILES | IC50 |
| --- | --- |
| O=C(C[C@H]1CC[C@H]2[C@@H](COC[C@H](O)CN2C(=O)Nc2ccc(C(F)(F)F)cc2)O1)NC1Cc2ccccc2C1 | 3.82 µM |
| O=S(=O)(c1ccc(F)cc1)N1C[C@@H]2N[C@H](C1)C2c1ccc(/C=C/c2ccccc2)cc1 (stereo partly drawn) | 8.8 µM |
| Cc1ccc(-c2ccc([C@@H]3[C@@H](CO)N4CCCCN(S(=O)(=O)c5cccc(C)c5)C[C@H]34)cc2)cc1 | 10.7 µM |
| Cc1ccccc1-c1ccc(C2[C@@H]3CN(S(=O)(=O)c4ccccc4C)C[C@H]2N3)cc1 (stereo partly drawn) | 27.5 µM |
| O=C(Nc1cccc(F)c1)N1CCCCN2[C@@H](CO)[C@H](c3ccc(-c4ccccc4F)cc3)[C@@H]2C1 | 33.6 µM |
| Fc1ccccc1-c1ccc(C2[C@@H]3CN(Cc4ccccc4)C[C@H]2N3)cc1 (stereo partly drawn) | 4.68 µM and 7.81 µM |
| O=C(C[C@@H]1CC[C@@H]2[C@H](COC[C@@H](O)CN2C(=O)Nc2ccc(Cl)c(Cl)c2)O1)NC1CCC1 | 5.89 µM |
| O=C(Nc1ccc(F)cc1)N1CCCCN2[C@@H](CO)[C@@H](c3ccc(-c4ccccc4F)cc3)[C@@H]2C1 | 35 µM |
| O=C(c1ccccc1)N1CC[C@@H]2[C@H]1c1cc(-c3ccc(F)cc3)ccc1N[C@@H]2CO | 129 µM |
| O=C(C[C@@H]1CC[C@@H]2[C@H](COC[C@H](O)CN2C(=O)Nc2ccc(C(F)(F)F)cc2)O1)NC1Cc2ccccc2C1 | 17.5 µM |
| Cc1cccc(-c2ccc(C3[C@H]4CNC[C@@H]3N4C(=O)Nc3ccc(F)cc3)cc2)c1 (stereo partly drawn) | 30.6 µM |
| Cc1ccccc1-c1ccc([C@@H]2[C@H](CO)N3CCCCN(C(=O)Nc4cccc(F)c4)C[C@@H]23)cc1 | 14.7 µM |
| Cc1ccc(-c2ccc([C@H]3[C@@H](CO)N4CCCCN(C(=O)c5ccc(F)cc5)C[C@H]34)cc2)cc1 | 30.7 µM |
| COc1cccc(-c2ccc(C3[C@@H]4CN(S(=O)(=O)c5ccccc5C)C[C@H]3N4)cc2)c1 (stereo partly drawn) | 29.1 µM |
| COc1ccc(C#Cc2ccc([C@H]3[C@@H](CO)N4CCCCN(Cc5ccccc5F)C[C@H]34)cc2)cc1 | 4.95 µM |
| C/C=C/c1ccc(C2[C@@H]3CN(C(=O)Nc4ccc(C(F)(F)F)cc4)C[C@H]2N3)cc1 (stereo partly drawn) | 13.7 µM and 10.6 µM |
| O=C(c1ccc(F)cc1)N1CC(=O)N2[C@H](CO)[C@H](c3ccc(C#CCC4CCCC4)cc3)[C@H]2C1 | 81.6 µM |
| Cc1ccc(-c2ccc([C@H]3[C@@H](CO)N4CCCCN(C(=O)Nc5cccc(F)c5)C[C@H]34)cc2)cc1 | 4.44 µM |
| O=C(c1ccc(F)cc1)N1CC(=O)N2[C@@H](CO)[C@H](c3ccc(C#CCC4CCCC4)cc3)[C@@H]2C1 | 15.7 µM |
| Cc1ccc(-c2ccc(C3[C@H]4CNC[C@@H]3N4S(=O)(=O)c3cccc(C)c3)cc2)cc1 (stereo partly drawn) | 30.3 µM |
| O=C(C[C@@H]1CC[C@H]2[C@@H](COC[C@@H](O)CN2C(=O)Nc2ccc(C(F)(F)F)cc2)O1)NCC1CCCCC1 | 7.5 µM |

| SMILES | IC50 |
| --- | --- |
| O=S(=O)(Cc1ccccc1)N1CCCCN2[C@H](CO)[C@@H](c3ccc(C#Cc4ccccc4)cc3)[C@H]2C1 | > 240 µM (inactive) |
| CCCNC(=O)C[C@@H]1CC[C@@H]2[C@H](COC[C@H](O)CN2C(=O)Nc2ccc(Cl)c(Cl)c2)O1 | 12 µM |
| O=C(c1ccc2c(c1)OCO2)N1C[C@@H]2N[C@H](C1)C2c1ccc(/C=C/c2ccccc2)cc1 (stereo partly drawn) | 12.4 µM |
| N#Cc1ccc(-c2ccc(C3[C@@H]4CN(Cc5ccccc5F)C[C@H]3N4)cc2)cc1 (stereo partly drawn) | 35.8 µM and 26.1 µM |
| N#Cc1cccc(-c2ccc(C3[C@H]4CNC[C@@H]3N4Cc3cccc(F)c3)cc2)c1 (stereo partly drawn) | 55.7 µM |
| O=C(NC1CCCCC1)N1C[C@@H]2N[C@H](C1)C2c1ccc(-c2cccc(F)c2)cc1 (stereo partly drawn) | 61.2 µM |
| Fc1cccc(-c2ccc([C@@H]3[C@@H]4CN(Cc5nccs5)C[C@H]3N4)cc2)c1 | 66.3 µM |
| COc1cccc(CN2[C@@H]3CNC[C@H]2C3c2ccc(-c3cccc(OC)c3)cc2)c1 (stereo partly drawn) | 13.3 µM |
| O=C(Nc1ccc(F)cc1)N1CCCCN2[C@H](CO)[C@@H](c3ccc(-c4cccc(F)c4)cc3)[C@H]2C1 | 92.2 µM |
| Cc1ccccc1-c1ccc(C2[C@@H]3CN(Cc4cocn4)C[C@H]2N3)cc1 (stereo partly drawn) | 45.5 µM |
| COc1ccc(-c2ccc(C3[C@@H]4CN(C(=O)Nc5cccc(F)c5)C[C@H]3N4)cc2)cc1 (stereo partly drawn) | 26 µM |
| COc1ccccc1C#Cc1ccc2c(c1)[C@H]1[C@H](CCN1C(=O)c1ccc(F)cc1)[C@@H](CO)N2 | < 0.5 µM |
| COc1cccc(-c2ccc(C3[C@H]4CNC[C@@H]3N4Cc3ccc(F)cc3)cc2)c1 (stereo partly drawn) | 11.9 µM |
| COc1cccc(-c2ccc3c(c2)[C@H]2[C@H](CCN2Cc2ccccc2OC)[C@H](CO)N3)c1 | 56.5 µM |
| N#Cc1cccc(-c2ccc(C3[C@H]4CNC[C@@H]3N4Cc3ccc(F)cc3)cc2)c1 (stereo partly drawn) | 29.4 µM |
| Cc1cccc(-c2ccc(C3[C@@H]4CN(C(=O)C5CCCCC5)C[C@H]3N4)cc2)c1 (stereo partly drawn) | 26.6 µM |
| COc1cc(CN2C[C@@H]3N[C@H](C2)C3c2ccc(-c3ccccc3C)cc2)cc(OC)c1 (stereo partly drawn) | 18.8 µM and 13.7 µM |
| Cc1cccc(S(=O)(=O)N2C[C@@H]3N[C@H](C2)C3c2ccc(-c3ccccc3C)cc2)c1 (stereo partly drawn) | 12.5 µM |
| O=C(C1CCCCC1)N1C[C@@H]2N[C@H](C1)C2c1ccc(-c2cccc(F)c2)cc1 (stereo partly drawn) | 67.8 µM |
| Cc1cccc(-c2ccc(C3[C@@H]4CN(C(=O)Nc5ccc(F)cc5)C[C@H]3N4)cc2)c1 (stereo partly drawn) | 12.2 µM |
| O=C(C[C@H]1CC[C@@H]2[C@H](COC[C@H](O)CN2C(=O)Nc2ccc(C(F)(F)F)cc2)O1)NC1Cc2ccccc2C1 | 36.6 µM |

| SMILES | IC50 |
| --- | --- |
| Cc1ccccc1-c1ccc([C@H]2[C@H](CO)N3CCCCN(C(=O)Nc4cccc(F)c4)C[C@@H]23)cc1 | 29.1 µM |
| O=C(NC[C@@H]1N[C@@H](CO)[C@H]1c1ccc(C2=CCCCC2)cc1)c1ccc(F)cc1 | 57.8 µM |
| O=C(Nc1ccccc1F)N1CCCCN2[C@H](CO)[C@@H](c3ccc(/C=C/c4ccccc4)cc3)[C@H]2C1 | 21.7 µM |
| O=C(C[C@@H]1CC[C@H]2[C@@H](COC[C@@H](O)CN2C(=O)Nc2cc(Cl)cc(Cl)c2)O1)N1CCOCC1 | 17.3 µM |
| COc1ccc(NC(=O)N2CCCCN3[C@H](CO)[C@H](c4ccc(C#Cc5ccccc5)cc4)[C@H]3C2)cc1 | 27.5 µM |
| Cc1ccccc1-c1ccc(C2[C@H]3CNC[C@@H]2N3S(=O)(=O)c2ccc(Cl)cc2)cc1 (stereo partly drawn) | 35.8 µM |
| CCCC#Cc1ccc([C@H]2[C@H](CO)N3CCCCN(S(=O)(=O)c4ccccc4C)C[C@@H]23)cc1 | > 240 µM (inactive) |
| N#Cc1cccc(-c2ccc(C3[C@@H]4CN(C(=O)Nc5ccc(C(F)(F)F)cc5)C[C@H]3N4)cc2)c1 (stereo partly drawn) | 11.8 µM and 7.72 µM |
| Fc1cccc(CN2C[C@@H]3N[C@H](C2)[C@@H]3c2ccc(-c3cccc(F)c3)cc2)c1 | 6.05 µM |
| O=C(NC[C@H]1N[C@H](CO)[C@@H]1c1ccc(C2=CCCC2)cc1)c1ccccc1 | 69.4 µM |
| O=C(Nc1ccc(C(F)(F)F)cc1)N1C[C@@H]2N[C@H](C1)C2c1ccc(/C=C/c2ccccc2)cc1 (stereo partly drawn) | 1.98 µM and 3.86 µM |
| Cc1cccc(-c2ccc(C3[C@@H]4CN(C(=O)Nc5ccc(C(F)(F)F)cc5)C[C@H]3N4)cc2)c1 (stereo partly drawn) | 2.73 µM and 2.52 µM |
| OC[C@@H]1[C@H](c2ccc(-c3ccccc3)cc2)[C@@H]2CN(CCC(F)(F)F)CCCCN12 | 56.6 µM |
| Cc1ccc(-c2ccc(C3[C@@H]4CN(C(=O)Nc5ccc(C(F)(F)F)cc5)C[C@H]3N4)cc2)cc1 (stereo partly drawn) | 4.49 µM and 2.49 µM |
| Fc1cccc(CN2[C@@H]3CNC[C@H]2C3c2ccc(-c3cccc(F)c3)cc2)c1 (stereo partly drawn) | 28 µM |
| Cc1ccccc1-c1ccc(C2[C@@H]3CN(C(=O)Cc4ccccc4)C[C@H]2N3)cc1 (stereo partly drawn) | 62.1 µM and 68.3 µM |
| Cc1cccc(-c2ccc([C@H]3[C@H](CO)N4CCCCN(CCC(F)(F)F)C[C@@H]34)cc2)c1 | 68.9 µM |
| COc1cccc(CN2C[C@@H]3N[C@H](C2)C3c2ccc(-c3ccccc3F)cc2)c1 (stereo partly drawn) | 9.26 µM and 6.5 µM |
| C/C=C/c1ccc(C2[C@H]3CNC[C@@H]2N3C(=O)Nc2cccc(Cl)c2)cc1 (stereo partly drawn) | 54.4 µM |
| O=S(=O)(c1ccccc1)N1C[C@@H]2N[C@H](C1)C2c1ccc(-c2ccc(F)cc2)cc1 (stereo partly drawn) | 51.4 µM |
| O=C(Nc1ccccc1)N1C[C@@H]2N[C@H](C1)C2c1ccc(-c2ccccc2F)cc1 (stereo partly drawn) | 52.3 µM |

| SMILES | IC50 |
| --- | --- |
| O=C(C[C@@H]1CC[C@H]2[C@@H](COC[C@@H](O)CN2C(=O)Nc2ccc(Cl)c(Cl)c2)O1)NC1CCC1 | 8 µM |
| O=C(Nc1ccc(C(F)(F)F)cc1)N1[C@@H]2CNC[C@H]1C2c1ccc(/C=C/c2ccccc2)cc1 (stereo partly drawn) | 19.5 µM and 4.14 µM |
| COc1ccc(C#Cc2ccc([C@@H]3[C@H](CO)N4CCCCN(Cc5ccccc5F)C[C@@H]34)cc2)cc1 | 8.12 µM |
| COc1ccccc1CN1C[C@@H]2N[C@H](C1)C2c1ccc(/C=C/c2ccccc2)cc1 (stereo partly drawn) | 3.7 µM and 19 µM |
| Cc1ccccc1-c1ccc(C2[C@H]3CNC[C@@H]2N3Cc2ccc3c(c2)OCO3)cc1 (stereo partly drawn) | 27.7 µM |
| C(=C\c1ccc(C2[C@@H]3CN(Cc4nccs4)C[C@H]2N3)cc1)/c1ccccc1 (stereo partly drawn) | 16.7 µM and 67.5 µM |
| COc1ccc(NC(=O)N2CCCCN3[C@@H](CO)[C@@H](c4ccc(C#Cc5ccccc5)cc4)[C@@H]3C2)cc1 | 16.2 µM |
| O=C(C[C@H]1CC[C@H]2[C@@H](COC[C@H](O)CN2C(=O)Nc2ccc(C(F)(F)F)cc2)O1)NCC1CCCCC1 | 7.15 µM |
| C(=C\c1ccc(C2[C@@H]3CN(Cc4cccnc4)C[C@H]2N3)cc1)/c1ccccc1 (stereo partly drawn) | 52.1 µM and 56.8 µM |
| O=C(C[C@H]1CC[C@H]2[C@@H](COC[C@@H](O)CN2C(=O)Nc2ccc(Cl)c(Cl)c2)O1)NC1CCC1 | 19.4 µM |
| Cc1ccc(-c2ccc([C@H]3[C@H](CO)N4CCCCN(C(=O)Nc5cccc(F)c5)C[C@@H]34)cc2)cc1 | 11.2 µM |
| O=S(=O)(c1ccccc1F)N1C[C@@H]2N[C@H](C1)C2c1ccc(/C=C/c2ccccc2)cc1 (stereo partly drawn) | 19.4 µM |
| OC[C@H]1[C@@H](c2ccc(-c3cccc(F)c3)cc2)[C@@H]2CN(CCC(F)(F)F)CCCCN12 | 53.8 µM |
| Cc1cccc(-c2ccc([C@H]3[C@@H](CO)N4CCCCN(CCC(F)(F)F)C[C@@H]34)cc2)c1 | 50.5 µM |
| Cc1ccc(S(=O)(=O)N2[C@@H]3CNC[C@H]2C3c2ccc(-c3cccc(F)c3)cc2)cc1 (stereo partly drawn) | 52.3 µM |
| Cc1ccc(-c2ccc([C@H]3[C@@H](CO)N4CCCCN(S(=O)(=O)c5cccc(C)c5)C[C@H]34)cc2)cc1 | 13.7 µM |
| Cc1ccc(-c2ccc(C3[C@H]4CNC[C@@H]3N4C(=O)Nc3ccc(F)cc3)cc2)cc1 (stereo partly drawn) | 64.4 µM |
| C/C=C/c1ccc(C2[C@H]3CNC[C@@H]2N3Cc2cc(-c3ccccc3)on2)cc1 (stereo partly drawn) | 32.7 µM |
| O=C(Nc1ccc(C(F)(F)F)cc1)N1[C@@H]2CNC[C@H]1C2c1ccc(-c2ccc(F)cc2)cc1 (stereo partly drawn) | 13.9 µM |
| N#Cc1cccc(-c2ccc(C3[C@@H]4CN(Cc5ccccc5)C[C@H]3N4)cc2)c1 (stereo partly drawn) | 79.6 µM |
